In ChEMBL document CHEMBL1140349, “A new simple and high-yield synthesis of suberoylanilide hydroxamic acid and its inhibitory effect alone or in combination with retinoids on proliferation of human prostate cancer cells” (J Med Chem, 2005):

Assays:
[1] = system: LNCaP; test: Concentration required to inhibit growth of human LNCaP prostate cancer cells; assay type: functional
[2] = system: LNCaP; test: Concentration required to inhibit human LNCaP prostate carcinoma cells; assay type: functional, cell-based

- IC50 [2]: 5.5 µM
Compound: CC1=C(/C=C/C(C)=C/C=C/C(C)=C/C(=O)Nc2ccc(O)cc2)C(C)(C)CCC1n1ccnc1 (configuration not stated)
- Growth inhibition [1]: 5 µM
